Reference: US9249147B2, “Tyrosine kinase inhibitors” (CHEMBRIDGE CORPORATION, priority 2008, dated 2016)
Values after ≈ are worked out from the molar mass of the structure shown. Like-named read-outs stand apart in the source and are kept apart here.

Experiments:
[1] = Caco-2 (TC7) A-B Permeability test (pH 6.5/7.4); conditions: human, A-B Permeability (TC7, pH 6.5/7.4), test concentration 1.0E−05 M
[2] = target: T1, IGF1R (Homo sapiens, UniProt P08069); experiment: IGF1R kinase assay; format: biochemical; conditions: Table 1; read-out: IGF1R IC50
T1 construct: 6×His- or GST-tagged kinase domain fragments of the corresponding RTKs expressed in baculovirus system; host or cells: baculovirus system
Experimental: (§1) To determine inhibition of several tyrosine kinases, such as IGF1R, InsR, Alk, TrkA and Jak2, kinase assays are conducted using either Kinase-Glo (Promega) or AlphaScreen (PerkinElmer) kinase assay platforms. The Kinase-Glo Luminescent Kinase Assay is a homogeneous method for measuring kinase activity by determining the amount of ATP remaining after a kinase reaction. The luminescent signal is proportional to the amount of ATP and inversely proportional to the amount of kinase activity. Tyrosine kinase PT66 AlphaScreen Assay is a high-sensitivity homogeneous, anti-phosphotyrosine antibody-mediated luminescent proximity method measuring incorporation of phosphate in synthetic poly(Glu-Tyr) substrate. The kinase preparations used consist of purified recombinant, 6×His- or GST-tagged kinase domain fragments of the corresponding RTKs expressed in baculovirus system.
(§2) Compounds with a range of concentrations 40 μM, 20 μM, 10 μM, 5 μM, 2.5 μM, 1.25 μM, 0.625 μM, 0.3125 μM, 0.15625 μM and 0.078125 μM were incubated with NPM-ALK, which was produced in insect cells as a 6×HIS-tagged fusion protein and purified using nickel-charged resin chromatography, for 30 minutes at RT in the presence of 10 μM ATP and 7.0 ng biotinylated poly-GT. A 1:1 mixture of […] and donor beads was then added to the reaction and incubated for an additional 60 minutes at RT. The assay was conducted on a MultiPROBE liquid handling workstation (PerkinElmer) in a 384-well plate format with a total reaction volume of 40 μL per well. Working stocks of all compounds were dissolved in 100% DMSO and serial dilutions of the compounds were performed using kinase buffer (50 mM Tris-HCl (pH 7.5), 5 mM MgCl2, 5 mM MnCl2, 2 mM DTT (added freshly before use), 0.01% Tween-20) containing 5% DMSO. […] Data were collected as optical readings at 520-680 nm on a Fusion™ microplate analyzer (PerkinElmer), and IC50 and Ki values calculated using PRISM3.0 software (GraphPad Software, Inc., San Diego, Calif.). The same assay was also used with minor modifications to assess the IC50 and Ki values for selected compounds against five other tyrosine kinases (IRK, IGF1R, Flt3, Abl, Src), all of which were purchased from commercial vendors. PolyGT-Biotin was bought from CIS Biointernational Cat. #61GT0BLD; ATP—from Sigma Cat. # A7699; sodium orthovanadate—from Sigma Cat. #S-6508; phosphotyrosine (PT66) assay kit from PerkinElmer Cat. #6760602M; automated workstation tips (20 μL): PerkinElmer Cat. #6000657; and OptiPlate-384 (white)—from PerkinElmer Cat. #6007299.

[3] = target: T2, IRK (Homo sapiens, UniProt P06213); experiment: IRK (insulin receptor kinase) assay; format: biochemical; conditions: Table 1; read-out: IRK IC50
T2 construct: 6×His- or GST-tagged kinase domain fragments of the corresponding RTKs expressed in baculovirus system; host or cells: baculovirus system
Experimental: as §1, §2

[4] = target: ALK (Homo sapiens, UniProt Q9UM73); experiment: ALK kinase assay (Kinase-Glo / AlphaScreen, purified NPM-ALK); format: biochemical; parameters: fused to the complete intracytoplasmic portion of ALK containing the functional tyrosine kinase domain; 6xHis; made in house; host or cells: insect cells; the other entry of the earlier key: NPM1 (P06748, Nucleophosmin); conditions: Table 1; read-out: ALK IC50
[5] = Aqueous Solubility (PBS, pH 7.4); format: physicochemical; conditions: pH 7.4, 2.0E−04 M; for solubility: pH 7.4, PBS
[6] = Caco-2, pH 6.5, Mean Permeability, mean of n = 2
[7] = Caco-2, pH 6.5, Mean Recovery, mean of n = 2
[8] = Caco-2, pH 6.5, Permeability 1st, 1st replicate
[9] = Caco-2, pH 6.5, Permeability 2nd, 2nd replicate
[10] = Caco-2, pH 6.5, Present Recovery 1st, 1st replicate
[11] = Caco-2, pH 6.5, Present Recovery 2nd, 2nd replicate
[12] = Tables 9C, 9D, read-out: Solubility Mean
[13] = individual data, read-out: Solubility 1st/2nd

ALK, sequence (Q9UM73 with tags, fused parts or gaps): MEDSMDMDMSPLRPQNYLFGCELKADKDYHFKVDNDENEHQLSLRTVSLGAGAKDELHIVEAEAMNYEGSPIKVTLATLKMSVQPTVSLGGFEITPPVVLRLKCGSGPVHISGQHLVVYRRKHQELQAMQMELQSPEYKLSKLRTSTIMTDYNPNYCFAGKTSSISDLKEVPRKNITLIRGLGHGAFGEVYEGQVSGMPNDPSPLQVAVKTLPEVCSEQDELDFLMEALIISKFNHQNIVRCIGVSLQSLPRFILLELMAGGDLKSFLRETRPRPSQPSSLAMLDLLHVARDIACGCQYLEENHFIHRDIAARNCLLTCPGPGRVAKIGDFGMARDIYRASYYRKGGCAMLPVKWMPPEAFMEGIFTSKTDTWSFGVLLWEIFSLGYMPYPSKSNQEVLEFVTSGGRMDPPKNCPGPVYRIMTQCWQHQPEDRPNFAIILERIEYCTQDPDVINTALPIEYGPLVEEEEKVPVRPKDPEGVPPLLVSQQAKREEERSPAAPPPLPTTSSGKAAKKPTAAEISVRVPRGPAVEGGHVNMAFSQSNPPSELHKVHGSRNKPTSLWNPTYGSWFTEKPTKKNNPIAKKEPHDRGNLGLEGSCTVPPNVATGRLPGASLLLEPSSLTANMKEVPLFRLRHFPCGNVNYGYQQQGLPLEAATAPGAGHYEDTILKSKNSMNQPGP
T2 sequence (P06213 1023-1298 limits assumed): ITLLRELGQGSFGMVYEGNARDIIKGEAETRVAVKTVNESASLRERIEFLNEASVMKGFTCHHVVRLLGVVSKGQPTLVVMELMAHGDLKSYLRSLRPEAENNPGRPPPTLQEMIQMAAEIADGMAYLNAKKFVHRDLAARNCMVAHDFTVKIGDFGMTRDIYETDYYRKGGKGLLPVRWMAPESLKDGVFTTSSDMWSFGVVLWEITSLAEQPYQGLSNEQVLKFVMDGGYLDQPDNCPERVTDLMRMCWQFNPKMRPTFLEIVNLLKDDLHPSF
T1 sequence (P08069 999-1274 limits assumed): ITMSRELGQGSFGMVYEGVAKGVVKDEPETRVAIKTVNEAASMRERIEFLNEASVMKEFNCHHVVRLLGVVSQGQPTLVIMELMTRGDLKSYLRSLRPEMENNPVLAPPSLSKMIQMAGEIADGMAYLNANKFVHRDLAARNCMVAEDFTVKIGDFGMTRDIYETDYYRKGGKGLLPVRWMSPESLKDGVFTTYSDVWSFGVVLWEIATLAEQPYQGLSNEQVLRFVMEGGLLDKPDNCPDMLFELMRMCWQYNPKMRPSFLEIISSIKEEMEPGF

Row | SMILES | IC50 [2] | IC50 [3] | IC50 [4] | further results
1 | CC(CCc1ccccc1)NCC(O)c1ccc(O)c(C(N)=O)c1 (centres unmarked) [Labetalol] |  |  |  | Papp A→B at 10 µM [1, 6]: 6 ×10⁻⁶ cm/s; recovery at 10 µM [1, 7]: 90%; Papp A→B at 10 µM [1, 8]: 5.8 ×10⁻⁶ cm/s; Papp A→B at 10 µM [1, 9]: 6.21 ×10⁻⁶ cm/s; recovery at 10 µM [1, 10]: 91%; recovery at 10 µM [1, 11]: 88%
2 | CNC(=C[N+](=O)[O-])NCCSCc1ccc(CN(C)C)o1 [Ranitidine] |  |  |  | Papp A→B at 10 µM [1, 6]: 0.6 ×10⁻⁶ cm/s; recovery at 10 µM [1, 7]: 95%; Papp A→B at 10 µM [1, 8]: 0.58 ×10⁻⁶ cm/s; Papp A→B at 10 µM [1, 9]: 0.64 ×10⁻⁶ cm/s; recovery at 10 µM [1, 10]: 82%; recovery at 10 µM [1, 11]: 109%
3 | CC(Cc1ccccc1F)Nc1cc[nH]c(=O)c1-c1nc2cc3c(cc2[nH]1)C(=O)N(CCCN1CCCC1)C3 (centres unmarked) | 100 to 250 nM | > 1000 nM | 100 to 250 nM | 
4 | COc1ccc(F)cc1C[C@H](C)Nc1cc[nH]c(=O)c1-c1nc2cc3c(cc2[nH]1)CN(CCN1CCOCC1)C3=O | 100 to 250 nM | > 1000 nM | 100 to 250 nM | 
5 | C[C@@H](Cc1cc(F)ccc1Cl)Nc1cc[nH]c(=O)c1-c1nc2cc3c(cc2[nH]1)CN(CCN1CCCC1)C3=O | 250 to 1000 nM | 250 to 1000 nM | 100 to 250 nM | 
6 | O=C(CCCN1CCC(O)(c2ccc(Cl)cc2)CC1)c1ccc(F)cc1 [Haloperidol] |  |  |  | Solubility 1st/2nd ([5]; individual data): 61.29 μm; solubility [5, 12]: 61.9 µM (≈ 23.3 µg/mL); solubility [5, 13]: 62.5 µM (≈ 23.5 µg/mL)
7 | C[C@@H](Cc1cccs1)Nc1cc[nH]c(=O)c1-c1nc2cc3c(cc2[nH]1)C(=O)N(CCN1CCCC1)C3 | 250 to 1000 nM | 100 to 250 nM | 250 to 1000 nM | 
8 | COc1ccc(C)c(C[C@H](C)Nc2cc[nH]c(=O)c2-c2nc3cc4c(cc3[nH]2)CN(CCN2CCCC2)C4=O)c1 | > 1000 nM | 250 to 1000 nM | 10 to 100 nM | 
9 | CC(Cc1cccs1)N(C)c1cc[nH]c(=O)c1-c1nc2cc3c(cc2[nH]1)C(=O)N(CCCN1CCCC1)C3 (centres unmarked) | > 1000 nM | > 1000 nM | > 1000 nM | 
10 | Cc1ccc(Cl)cc1C[C@H](C)Nc1cc[nH]c(=O)c1-c1nc2cc3c(cc2[nH]1)CN(CCN1CCCC1)C3=O | > 1000 nM | 100 to 250 nM | 250 to 1000 nM | 
11 | O=C1NC(=O)C(c2ccccc2)(c2ccccc2)N1 [Phenytoin] |  |  |  | Solubility 1st/2nd ([5]; individual data): 86.44 μm; solubility [5, 12]: 87 µM (≈ 21.9 µg/mL); solubility [5, 13]: 87.7 µM (≈ 22.1 µg/mL)
12 | COc1cc2c(c(OC)c1OC)-c1ccc(OC)c(=O)cc1[C@@H](NC(C)=O)CC2 [Colchicine] |  |  |  | recovery at 10 µM [1, 7]: 97%; Papp A→B at 10 µM [1, 8]: 0.9 ×10⁻⁶ cm/s; Papp A→B at 10 µM [1, 9]: 0.05 ×10⁻⁶ cm/s; recovery at 10 µM [1, 10]: 99%; recovery at 10 µM [1, 11]: 65%
13 | CC(Cc1cccs1)Nc1cc[nH]c(=O)c1-c1nc2cc3c(cc2[nH]1)C(=O)N(C1CCN(C)CC1)C3=O (centres unmarked) | > 1000 nM | > 1000 nM | 250 to 1000 nM | 
14 | C[C@@H](Cc1cccs1)Nc1cc[nH]c(=O)c1-c1nc2cc3c(cc2[nH]1)C(=O)N(C1CCN(CCS(C)(=O)=O)CC1)C3 | 100 to 250 nM | 250 to 1000 nM | 100 to 250 nM | 
15 | C[C@@H](Cc1c(F)c(F)cc(F)c1F)Nc1cc[nH]c(=O)c1-c1nc2cc3c(cc2[nH]1)CN(CCN1CCCC1)C3=O [drawing 345] | > 1000 nM | 250 to 1000 nM | < 10 nM | 
16 | C[C@H](Cc1cccs1)Nc1cc[nH]c(=O)c1-c1nc2c(Cl)c3c(cc2[nH]1)C(=O)N(C1CCN(C)CC1)C3=O | > 1000 nM | > 1000 nM | > 1000 nM | 

Further lines, with some results ahead:

Row | IC50 [2] | IC50 [3] | IC50 [4] | SMILES | further results
17 | 100 to 250 nM | 250 to 1000 nM | 10 to 100 nM | COc1ccc(F)cc1C[C@H](C)Nc1cc[nH]c(=O)c1-c1nc2cc3c(cc2[nH]1)CN(CCN(C)C)C3=O | 
18 | 250 to 1000 nM | 10 to 100 nM | 10 to 100 nM | Cc1ccsc1C[C@H](C)Nc1cc[nH]c(=O)c1-c1nc2cc3c(cc2[nH]1)CN(CCN1CCCC1)C3=O | 
19 | 100 to 250 nM | 100 to 250 nM | 10 to 100 nM | C[C@@H](Cc1sccc1Cl)Nc1cc[nH]c(=O)c1-c1nc2cc3c(cc2[nH]1)CN(CCN1CCCC1)C3=O | 
20 | > 1000 nM | 250 to 1000 nM | 10 to 100 nM | COc1cc(F)c(F)c(C[C@H](C)Nc2cc[nH]c(=O)c2-c2nc3cc4c(cc3[nH]2)CN(CCN2CCCC2)C4=O)c1OC | 
21 | 250 to 1000 nM | > 1000 nM | 10 to 100 nM | C[C@@H](Cc1cc(F)cc(F)c1F)Nc1cc[nH]c(=O)c1-c1nc2cc3c(cc2[nH]1)CN(CCN1CCOCC1)C3=O | 
22 | > 1000 nM | 250 to 1000 nM | > 1000 nM | C[C@H](Cc1cccs1)Nc1cc[nH]c(=O)c1-c1nc2cc3c(cc2[nH]1)C(=O)N(CCCN1CCCC1)C3 | 
23 | 250 to 1000 nM | 100 to 250 nM | 100 to 250 nM | CCS(=O)(=O)CCN1CCC(N2Cc3cc4nc(-c5c(N[C@@H](C)Cc6cccs6)cc[nH]c5=O)[nH]c4cc3C2=O)CC1 | 
24 | 100 to 250 nM | 100 to 250 nM | < 10 nM | Cc1ccc(F)cc1C[C@H](C)Nc1cc[nH]c(=O)c1-c1nc2c(C)c3c(cc2[nH]1)CN(CCN1CCCC1)C3=O [drawing 321] | 
25 | 250 to 1000 nM | 250 to 1000 nM | 10 to 100 nM | C[C@@H](Cc1cc(F)cc(F)c1F)Nc1cc[nH]c(=O)c1-c1nc2cc3c(cc2[nH]1)CN(CCN1CCCC1)C3=O [drawing 327] | 
26 | 250 to 1000 nM | 250 to 1000 nM | 100 to 250 nM | C[C@H](Nc1cc[nH]c(=O)c1-c1nc2cc3c(cc2[nH]1)C(=O)N(CCCN1CCCC1)C3)[C@H](O)c1ccccc1 | 
27 | > 1000 nM | > 1000 nM | > 1000 nM | C[C@H](Cc1cccs1)Nc1cc[nH]c(=O)c1-c1nc2cc3c(cc2[nH]1)C(=O)N(CCCN1CCCC1)C3=O | 
28 | 100 to 250 nM | > 1000 nM | 100 to 250 nM | Cc1ccc(F)cc1C[C@H](C)Nc1cc[nH]c(=O)c1-c1nc2cc3c(cc2[nH]1)C(=O)N(CCN(C)C)C3=O | 
